Where two headings read alike, the source gives them in different places.
Assays:
[1] = test system: viral replication in Vero E6 cells; conditions: viral replication in Vero E6 cells; cited from earlier work
USP4 = target: T1, USP4 (Homo sapiens, UniProt Q13107); experiment: DUB selectivity assay, USP4 (Ub-rhodamine110); type: biochemical; conditions: USP4 10 nM, Ub-rhodamine110; read-out: IC50
T1 construct: purchased LifeSensors, Inc. (Malvern, PA)
T1 sequence (Q13107 1-963): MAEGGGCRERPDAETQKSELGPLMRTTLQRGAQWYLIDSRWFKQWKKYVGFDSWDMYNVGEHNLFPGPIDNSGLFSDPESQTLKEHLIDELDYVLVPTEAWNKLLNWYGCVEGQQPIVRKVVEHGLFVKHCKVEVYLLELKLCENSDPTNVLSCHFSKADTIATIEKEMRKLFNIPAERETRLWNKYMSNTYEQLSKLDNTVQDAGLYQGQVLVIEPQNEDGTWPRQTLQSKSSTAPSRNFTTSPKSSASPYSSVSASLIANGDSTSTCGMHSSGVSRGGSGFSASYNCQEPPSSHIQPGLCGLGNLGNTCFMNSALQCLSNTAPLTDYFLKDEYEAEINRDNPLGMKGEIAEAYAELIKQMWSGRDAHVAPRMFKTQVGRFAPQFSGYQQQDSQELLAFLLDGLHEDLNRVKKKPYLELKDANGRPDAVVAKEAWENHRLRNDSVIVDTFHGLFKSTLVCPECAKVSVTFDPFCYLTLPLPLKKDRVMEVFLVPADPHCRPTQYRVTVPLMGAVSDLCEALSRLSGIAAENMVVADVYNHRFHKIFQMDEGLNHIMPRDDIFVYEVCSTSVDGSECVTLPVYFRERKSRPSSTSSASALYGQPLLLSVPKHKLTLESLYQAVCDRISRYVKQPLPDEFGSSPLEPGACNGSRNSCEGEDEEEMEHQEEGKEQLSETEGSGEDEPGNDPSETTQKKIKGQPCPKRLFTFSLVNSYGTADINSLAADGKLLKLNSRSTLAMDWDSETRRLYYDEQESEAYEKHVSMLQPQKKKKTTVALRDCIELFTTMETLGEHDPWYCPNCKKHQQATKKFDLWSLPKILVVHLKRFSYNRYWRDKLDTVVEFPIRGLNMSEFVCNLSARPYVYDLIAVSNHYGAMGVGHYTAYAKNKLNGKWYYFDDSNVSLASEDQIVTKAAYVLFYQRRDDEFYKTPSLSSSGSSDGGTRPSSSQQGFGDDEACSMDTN

in vitro = conditions: African green monkey, cytotoxicity, %cell viability
SARS-CoV PLpro = conditions: cited from earlier work
PLpro from SARS-CoV-2 = PLpro from SARS-CoV-2 (Severe acute respiratory syndrome coronavirus 2, UniProt P0DTD1); experiment: biochemical; type: biochemical
USP30 = target: T2, USP30 (Homo sapiens, UniProt Q70CQ3); experiment: biochemical; conditions: USP30 10 nM, Ub-rhodamine110
T2 construct: purchased LifeSensors, Inc. (Malvern, PA)

UCHL1 = target: T3, UCHL1 (Homo sapiens, UniProt P09936); experiment: biochemical; conditions: UCHL1 10 nM, Ub-rhodamine110
T3 construct: purchased LifeSensors, Inc. (Malvern, PA)

USP7 = target: T4, USP7 (Homo sapiens, UniProt Q93009); experiment: biochemical; conditions: USP7 5 nM, Ub-CHOP2
T4 construct: purchased LifeSensors, Inc. (Malvern, PA)

USP2 = target: T5, USP2 (Homo sapiens, UniProt O75604); experiment: biochemical; conditions: USP2 10 nM, Ub-rhodamine110
T5 construct: USP2c, USP4, USP7, USP8c, USP15, USP30WT, and UCH-L1; purchased LifeSensors, Inc. (Malvern, PA)

USP8 = target: T6, USP8 (Homo sapiens, UniProt P40818); experiment: biochemical; conditions: USP8 10 nM, Ub-rhodamine110
T6 construct: USP2c, USP4, USP7, USP8c, USP15, USP30WT, and UCH-L1; purchased LifeSensors, Inc. (Malvern, PA)

USP15 = target: T7, USP15 (Homo sapiens, UniProt Q9Y4E8); experiment: DUB selectivity assay, USP15 (Ub-rhodamine110); type: biochemical; conditions: USP15 1 nM, Ub-rhodamine110; read-out: IC50
T7 construct: purchased LifeSensors, Inc. (Malvern, PA)
T7 sequence (Q9Y4E8 1-981): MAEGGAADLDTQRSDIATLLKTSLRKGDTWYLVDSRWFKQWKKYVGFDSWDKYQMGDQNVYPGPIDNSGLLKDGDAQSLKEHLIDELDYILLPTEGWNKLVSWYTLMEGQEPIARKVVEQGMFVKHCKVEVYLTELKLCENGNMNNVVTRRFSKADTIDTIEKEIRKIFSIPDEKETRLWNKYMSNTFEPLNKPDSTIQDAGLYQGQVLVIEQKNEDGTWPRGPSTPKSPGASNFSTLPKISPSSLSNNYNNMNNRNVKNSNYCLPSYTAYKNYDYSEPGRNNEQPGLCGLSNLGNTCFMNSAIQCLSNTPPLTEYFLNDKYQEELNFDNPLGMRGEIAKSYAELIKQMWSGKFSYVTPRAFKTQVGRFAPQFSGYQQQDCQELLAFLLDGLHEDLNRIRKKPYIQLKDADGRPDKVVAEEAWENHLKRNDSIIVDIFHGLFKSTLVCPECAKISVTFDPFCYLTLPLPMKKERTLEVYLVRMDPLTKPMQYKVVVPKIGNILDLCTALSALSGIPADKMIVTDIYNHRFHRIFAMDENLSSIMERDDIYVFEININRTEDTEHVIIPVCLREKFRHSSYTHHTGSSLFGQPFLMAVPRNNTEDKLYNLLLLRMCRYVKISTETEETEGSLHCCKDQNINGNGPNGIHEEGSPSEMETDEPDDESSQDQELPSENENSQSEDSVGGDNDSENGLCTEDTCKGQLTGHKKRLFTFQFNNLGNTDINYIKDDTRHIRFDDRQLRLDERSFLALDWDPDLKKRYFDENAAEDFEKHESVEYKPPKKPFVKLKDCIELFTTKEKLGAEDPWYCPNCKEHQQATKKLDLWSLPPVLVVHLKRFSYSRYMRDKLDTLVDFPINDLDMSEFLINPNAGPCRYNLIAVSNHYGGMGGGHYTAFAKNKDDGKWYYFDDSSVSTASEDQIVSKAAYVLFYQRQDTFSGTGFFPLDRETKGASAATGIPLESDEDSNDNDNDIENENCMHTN

[2] = test system: SARS-CoV-2 isolate USA-WA1/2020; experiment: microbe, parasite or virus in culture; conditions: duplicate wells
[3] = test system: SARS-CoV-2 isolate USA-WA1/2020; conditions: read-out: cytopathic effect, % cell viability, duplicate wells
Vero E6 cells = conditions: African green monkey, 48 h
SARS-CoV-2 PLpro [4] = target: T8, SARS-CoV-2 PLpro (Severe acute respiratory syndrome coronavirus 2, UniProt P0DTD1); experiment: biochemical; conditions: PLpro 50 nM, Ub-rhodamine110
SARS-CoV-2 PLpro [5] = target: T8, SARS-CoV-2 PLpro; experiment: biochemical; conditions: PLpro 10 nM, ISG15-CHOP2

T2 sequence (Q70CQ3 whole entry): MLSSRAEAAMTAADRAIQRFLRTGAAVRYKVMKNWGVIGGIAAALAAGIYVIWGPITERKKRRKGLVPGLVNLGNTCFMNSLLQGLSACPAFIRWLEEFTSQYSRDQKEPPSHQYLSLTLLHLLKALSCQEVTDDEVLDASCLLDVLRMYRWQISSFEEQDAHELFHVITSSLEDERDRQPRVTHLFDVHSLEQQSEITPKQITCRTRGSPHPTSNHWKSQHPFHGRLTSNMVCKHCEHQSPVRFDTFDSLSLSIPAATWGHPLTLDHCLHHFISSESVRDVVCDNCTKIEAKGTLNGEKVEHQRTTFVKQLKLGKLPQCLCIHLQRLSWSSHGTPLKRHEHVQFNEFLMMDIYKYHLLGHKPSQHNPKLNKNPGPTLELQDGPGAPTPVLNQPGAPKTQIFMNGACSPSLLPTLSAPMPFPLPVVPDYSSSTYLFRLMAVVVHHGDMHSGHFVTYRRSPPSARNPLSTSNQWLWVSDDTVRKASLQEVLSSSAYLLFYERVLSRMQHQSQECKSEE
T4 sequence (Q93009 whole entry): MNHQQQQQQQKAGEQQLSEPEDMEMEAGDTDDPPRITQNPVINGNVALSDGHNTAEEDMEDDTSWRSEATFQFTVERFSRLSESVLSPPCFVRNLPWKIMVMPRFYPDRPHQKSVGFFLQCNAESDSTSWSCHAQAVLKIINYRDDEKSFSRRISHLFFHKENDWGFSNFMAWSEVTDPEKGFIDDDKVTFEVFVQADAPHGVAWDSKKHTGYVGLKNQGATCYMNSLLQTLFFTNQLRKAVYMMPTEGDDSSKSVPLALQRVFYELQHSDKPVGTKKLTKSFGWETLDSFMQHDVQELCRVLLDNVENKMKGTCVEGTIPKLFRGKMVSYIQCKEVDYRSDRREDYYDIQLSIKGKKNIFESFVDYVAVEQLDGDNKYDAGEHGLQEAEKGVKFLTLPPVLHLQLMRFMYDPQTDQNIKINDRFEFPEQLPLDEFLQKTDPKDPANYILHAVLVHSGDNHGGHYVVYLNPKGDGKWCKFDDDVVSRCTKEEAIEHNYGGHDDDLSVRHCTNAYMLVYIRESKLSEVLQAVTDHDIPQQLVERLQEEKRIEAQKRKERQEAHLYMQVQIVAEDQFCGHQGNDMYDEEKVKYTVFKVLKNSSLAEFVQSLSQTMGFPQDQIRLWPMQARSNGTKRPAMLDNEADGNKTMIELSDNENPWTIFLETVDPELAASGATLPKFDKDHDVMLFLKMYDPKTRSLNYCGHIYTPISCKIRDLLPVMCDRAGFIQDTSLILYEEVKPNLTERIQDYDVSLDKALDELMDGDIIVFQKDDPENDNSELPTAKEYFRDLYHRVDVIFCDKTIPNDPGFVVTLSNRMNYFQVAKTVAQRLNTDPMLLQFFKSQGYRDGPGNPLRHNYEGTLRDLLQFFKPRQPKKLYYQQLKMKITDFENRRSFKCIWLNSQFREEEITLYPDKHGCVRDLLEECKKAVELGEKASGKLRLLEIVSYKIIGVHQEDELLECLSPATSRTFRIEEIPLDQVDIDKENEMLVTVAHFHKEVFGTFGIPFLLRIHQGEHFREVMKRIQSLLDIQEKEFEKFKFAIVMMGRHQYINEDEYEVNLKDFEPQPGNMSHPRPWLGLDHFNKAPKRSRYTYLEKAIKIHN
T5 sequence (O75604 267-599): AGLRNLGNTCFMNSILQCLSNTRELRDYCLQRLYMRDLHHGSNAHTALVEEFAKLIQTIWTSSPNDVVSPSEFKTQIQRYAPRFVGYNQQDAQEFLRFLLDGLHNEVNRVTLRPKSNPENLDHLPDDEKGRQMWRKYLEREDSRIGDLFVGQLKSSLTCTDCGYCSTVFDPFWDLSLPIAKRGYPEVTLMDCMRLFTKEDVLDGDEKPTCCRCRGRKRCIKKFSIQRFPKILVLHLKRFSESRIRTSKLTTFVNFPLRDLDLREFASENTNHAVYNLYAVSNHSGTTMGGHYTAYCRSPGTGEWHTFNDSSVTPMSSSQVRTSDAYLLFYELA
T6 sequence (P40818 777-1109): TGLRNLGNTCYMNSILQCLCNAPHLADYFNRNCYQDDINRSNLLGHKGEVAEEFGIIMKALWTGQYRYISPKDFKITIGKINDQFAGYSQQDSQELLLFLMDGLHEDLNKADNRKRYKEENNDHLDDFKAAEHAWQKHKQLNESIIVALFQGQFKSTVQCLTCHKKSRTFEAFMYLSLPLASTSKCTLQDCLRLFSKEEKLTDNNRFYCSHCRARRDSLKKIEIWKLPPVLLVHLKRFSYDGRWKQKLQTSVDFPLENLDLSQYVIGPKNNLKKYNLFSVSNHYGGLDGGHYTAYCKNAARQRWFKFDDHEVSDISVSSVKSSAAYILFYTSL
T3 sequence (P09936 whole entry): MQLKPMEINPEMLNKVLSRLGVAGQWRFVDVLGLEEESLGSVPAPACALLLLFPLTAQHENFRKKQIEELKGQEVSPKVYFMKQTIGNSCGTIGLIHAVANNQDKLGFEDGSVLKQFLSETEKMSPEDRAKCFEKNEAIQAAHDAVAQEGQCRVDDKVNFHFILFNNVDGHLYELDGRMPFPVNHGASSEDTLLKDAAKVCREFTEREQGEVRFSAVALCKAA

SMILES: CC(=O)Nc1ccc(C)c(C(=O)N[C@H](C)c2cccc3ccccc23)c1 [Compound 15, (R)-5-acetamido-2-methyl-N-(1-(naphthalen-1-yl)ethyl)benzamide]
- EC50 [1]: 13.1 µM
- IC50 (USP4): > 30 µM
- viability at 48 h, 2.08 µM (in vitro): 85.5%
- viability at 48 h, 8.33 µM (in vitro): 85.8%
- viability at 48 h, 16.67 µM (in vitro): 81.3%
- viability at 48 h, 33.33 µM (in vitro): 64.9%
- IC50 (SARS-CoV PLpro): 2.6 µM
- remaining activity at 0.02 µM (PLpro from SARS-CoV-2; 0.5 h, inhibitor 0.02 uM): 115%
- remaining activity at 0.06 µM (PLpro from SARS-CoV-2; 0.5 h, inhibitor 0.06 uM): 104%
- remaining activity at 0.2 µM (PLpro from SARS-CoV-2; 0.5 h, inhibitor 0.20 uM): 110%
- remaining activity at 2.01 µM (PLpro from SARS-CoV-2; 0.5 h, inhibitor 2.01 uM): 61.8%
- remaining activity at 6.34 µM (PLpro from SARS-CoV-2; 0.5 h, inhibitor 6.34 uM): 56.9%
- remaining activity at 20 µM (PLpro from SARS-CoV-2; 0.5 h, inhibitor 20.00 uM): 26.7%
- IC50 (PLpro from SARS-CoV-2; after 30-min incubation, purified PLpro, Z-RLRGG-AMC substrate): 6.2 µM
- IC50 (USP30): > 30 µM
- IC50 (UCHL1): > 30 µM
- IC50 (USP7): > 30 µM
- IC50 (USP2): > 30 µM
- IC50 (USP8): > 30 µM
- IC50 (USP15): > 30 µM
- inhibition at 8.33 µM ([2]; Severe acute respiratory syndrome coronavirus 2, Vero C1008, read-out: cytopathic effect, % cell viability, [inhibitor] 8.33 uM): 5.51%
- inhibition at 16.67 µM ([2]; Severe acute respiratory syndrome coronavirus 2, Vero C1008, read-out: cytopathic effect, % cell viability, [inhibitor] 16.67 uM): 8.63%
- inhibition ([3]; [inhibitor] 8.33 uM, 8.33 µM): 3.31%
- inhibition ([3]; [inhibitor] 16.67 uM, 16.67 µM): 6.9%
- cytotoxicity, %cell viability (Vero E6 cells; 2.08 µM): 75.89%
- cytotoxicity, %cell viability (Vero E6 cells; 8.33 µM): 83.23%
- cytotoxicity, %cell viability (Vero E6 cells; 16.67 µM): 80.07%
- cytotoxicity, %cell viability (Vero E6 cells; 33.33 µM): 59.25%
- Hill slope (SARS-CoV-2 PLpro [4]): 0.376
- IC50 (SARS-CoV-2 PLpro [4]): > 30 µM
- Hill slope (SARS-CoV-2 PLpro [5]): 0.969
- IC50 (SARS-CoV-2 PLpro [5]): > 30 µM

Reference: PMC10044120, “Potent and selective covalent inhibition of the papain-like protease from SARS-CoV-2” (Nature Communications, 2023)
